Results: patent US4868321A, “Isothiocyanate intermediates” (FMC Corporation, priority 1988, dated 1989)

Assays:
Type in all cases: in vivo
Morningglory [1] = assay: Preemergence Herbicidal Activity, Morningglory; details: Ipomoea, pre-emergence
Method in brief: (§1)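 Pre-/postemergence screen; compound typically dissolved in acetone/water 50/50; dose in kg/ha; read-out = % control.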

Soybean [2] = assay: Postemergence Herbicidal Activity, Soybean; details: Glycine max, post-emergence
Method in brief: (§2)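 Efficacy is recorded as percent control at each application rate, expressed in kg/ha.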

Rice [3] = assay: Preemergence Herbicidal Activity, Rice; details: Oryza sativa, pre-emergence
Method in brief: as §2

Barnyardgrass [4] = assay: Preemergence Herbicidal Activity, Barnyardgrass; details: Echinochloa crus-galli, pre-emergence
Method in brief: (§3)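 Herbicidal response was graded as percent control. Compound rates were in kg/ha.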

Wheat [5] = assay: Preemergence Herbicidal Activity, Wheat; details: Triticum aestivum, pre-emergence
Method in brief: as §2

Barnyardgrass [6] = assay: Postemergence Herbicidal Activity, Barnyardgrass; details: Echinochloa crus-galli, post-emergence
Method in brief: as §3

Johnsongrass [7] = assay: Preemergence Herbicidal Activity, Johnsongrass; details: Sorghum halepense, pre-emergence
Method in brief: as §3

Velvetleaf [8] = assay: Preemergence Herbicidal Activity, Velvetleaf; details: Abutilon theophrasti, pre-emergence
Method in brief: as §1

Cotton [9] = assay: Preemergence Herbicidal Activity, Cotton; details: Gossypium hirsutum, pre-emergence
Method in brief: as §1

Cotton [10] = assay: Postemergence Herbicidal Activity, Cotton; details: Gossypium hirsutum, post-emergence
Method in brief: as §1

Field Corn [11] = assay: Preemergence Herbicidal Activity, Field Corn; details: Zea mays, pre-emergence
Method in brief: as §2

Field Bindweed [12] = assay: Preemergence Herbicidal Activity, Field Bindweed; details: pre-emergence
Method in brief: as §1

Wheat [13] = assay: Postemergence Herbicidal Activity, Wheat; details: Triticum aestivum, post-emergence
Method in brief: as §2

Velvetleaf [14] = assay: Postemergence Herbicidal Activity, Velvetleaf; details: Abutilon theophrasti, post-emergence
Method in brief: as §1

Morningglory [15] = assay: Postemergence Herbicidal Activity, Morningglory; details: Ipomoea, post-emergence
Method in brief: as §1

Green Foxtail [16] = assay: Preemergence Herbicidal Activity, Green Foxtail; details: Setaria viridis, pre-emergence
Method in brief: as §3

Rice [17] = assay: Postemergence Herbicidal Activity, Rice; details: Oryza sativa, post-emergence
Method in brief: as §2

Johnsongrass [18] = assay: Postemergence Herbicidal Activity, Johnsongrass; details: Sorghum halepense, post-emergence
Method in brief: as §3

Field Bindweed [19] = assay: Postemergence Herbicidal Activity, Field Bindweed; details: post-emergence
Method in brief: as §1

Field Corn [20] = assay: Postemergence Herbicidal Activity, Field Corn; details: Zea mays, post-emergence
Method in brief: as §2

Green Foxtail [21] = assay: Postemergence Herbicidal Activity, Green Foxtail; details: Setaria viridis, post-emergence
Method in brief: as §3

Soybean [22] = assay: Preemergence Herbicidal Activity, Soybean; details: Glycine max, pre-emergence
Method in brief: as §2

Structure (SMILES): CCCS(=O)(=O)N(c1cc(-n2nnn(CCCF)c2=O)c(F)cc1Br)S(=O)(=O)CCC [Compound 27]
- pest or weed control at 1000 g/ha (Morningglory [1]; 1.0 kg/ha): 100%
- plant injury at 1000 g/ha (Soybean [2]; 1.0 kg/ha): 90%
- plant injury at 1000 g/ha (Rice [3]; 1.0 kg/ha): 60%
- pest or weed control at 1000 g/ha (Barnyardgrass [4]; 1.0 kg/ha): 100%
- plant injury at 1000 g/ha (Wheat [5]; 1.0 kg/ha): 60%
- pest or weed control at 1000 g/ha (Barnyardgrass [6]; 1.0 kg/ha): 100%
- pest or weed control at 1000 g/ha (Johnsongrass [7]; 1.0 kg/ha): 95%
- pest or weed control at 1000 g/ha (Velvetleaf [8]; 1.0 kg/ha): 100%
- plant injury at 1000 g/ha (Cotton [9]; 1.0 kg/ha): 95%
- plant injury at 1000 g/ha (Cotton [10]; 1.0 kg/ha): 100%
- plant injury at 1000 g/ha (Field Corn [11]; 1.0 kg/ha): 95%
- pest or weed control at 1000 g/ha (Field Bindweed [12]; 1.0 kg/ha): 100%
- plant injury at 1000 g/ha (Wheat [13]; 1.0 kg/ha): 80%
- pest or weed control at 1000 g/ha (Velvetleaf [14]; 1.0 kg/ha): 100%
- pest or weed control at 1000 g/ha (Morningglory [15]; 1.0 kg/ha): 100%
- pest or weed control at 1000 g/ha (Green Foxtail [16]; 1.0 kg/ha): 100%
- plant injury at 1000 g/ha (Rice [17]; 1.0 kg/ha): 30%
- pest or weed control at 1000 g/ha (Johnsongrass [18]; 1.0 kg/ha): 100%
- pest or weed control at 1000 g/ha (Field Bindweed [19]; 1.0 kg/ha): 95%
- plant injury at 1000 g/ha (Field Corn [20]; 1.0 kg/ha): 95%
- pest or weed control at 1000 g/ha (Green Foxtail [21]; 1.0 kg/ha): 100%
- plant injury at 1000 g/ha (Soybean [22]; 1.0 kg/ha): 30%

Structure (SMILES): CCCS(=O)(=O)Nc1cc(-n2nnn(CCCF)c2=O)c(F)cc1Cl [Compound 28, 1-[4-Chloro-2-fluoro-5-(N--propylsulfonylamino)phenyl]-1,4-dihydro-4-(3-fluoropropyl)-5H--tetrazol-5-one]
- pest or weed control at 500 g/ha (Morningglory [1]; 0.5 kg/ha): 100%
- plant injury at 500 g/ha (Soybean [2]; 0.5 kg/ha): 30%
- plant injury at 500 g/ha (Rice [3]; 0.5 kg/ha): 70%
- pest or weed control at 500 g/ha (Barnyardgrass [4]; 0.5 kg/ha): 95%
- plant injury at 500 g/ha (Wheat [5]; 0.5 kg/ha): 30%
- pest or weed control at 500 g/ha (Barnyardgrass [6]; 0.5 kg/ha): 100%
- pest or weed control at 500 g/ha (Johnsongrass [7]; 0.5 kg/ha): 70%
- pest or weed control at 500 g/ha (Velvetleaf [8]; 0.5 kg/ha): 100%
- plant injury at 500 g/ha (Cotton [9]; 0.5 kg/ha): 100%
- plant injury at 500 g/ha (Cotton [10]; 0.5 kg/ha): 100%
- plant injury at 500 g/ha (Field Corn [11]; 0.5 kg/ha): 30%
- pest or weed control at 500 g/ha (Field Bindweed [12]; 0.5 kg/ha): 100%
- plant injury at 500 g/ha (Wheat [13]; 0.5 kg/ha): 60%
- pest or weed control at 500 g/ha (Velvetleaf [14]; 0.5 kg/ha): 100%
- pest or weed control at 500 g/ha (Morningglory [15]; 0.5 kg/ha): 100%
- pest or weed control at 500 g/ha (Green Foxtail [16]; 0.5 kg/ha): 90%
- plant injury at 500 g/ha (Rice [17]; 0.5 kg/ha): 70%
- pest or weed control at 500 g/ha (Johnsongrass [18]; 0.5 kg/ha): 95%
- pest or weed control at 500 g/ha (Field Bindweed [19]; 0.5 kg/ha): 100%
- plant injury at 500 g/ha (Field Corn [20]; 0.5 kg/ha): 40%
- pest or weed control at 500 g/ha (Green Foxtail [21]; 0.5 kg/ha): 100%
- plant injury at 500 g/ha (Soybean [22]; 0.5 kg/ha): 0%

Structure (SMILES): CCCS(=O)(=O)N(C)c1cc(-n2nnn(CCCF)c2=O)c(F)cc1Cl [Compound 29, 1-[4-Chloro-2-fluoro-5-(N--methyl-N--propylsulfonylamino)phenyl]-1,4-dihydro-4-(3-fluoropropyl)-5H--tetrazol-5-one]
- pest or weed control at 250 g/ha (Morningglory [1]; 0.25 kg/ha): 70%
- plant injury at 250 g/ha (Soybean [2]; 0.25 kg/ha): 70%
- plant injury at 250 g/ha (Rice [3]; 0.25 kg/ha): 60%
- pest or weed control at 250 g/ha (Barnyardgrass [4]; 0.25 kg/ha): 100%
- plant injury at 250 g/ha (Wheat [5]; 0.25 kg/ha): 80%
- pest or weed control at 250 g/ha (Barnyardgrass [6]; 0.25 kg/ha): 50%
- pest or weed control at 250 g/ha (Johnsongrass [7]; 0.25 kg/ha): 100%
- pest or weed control at 250 g/ha (Velvetleaf [8]; 0.25 kg/ha): 100%
- plant injury at 250 g/ha (Cotton [9]; 0.25 kg/ha): 60%
- plant injury at 250 g/ha (Cotton [10]; 0.25 kg/ha): 70%
- plant injury at 250 g/ha (Field Corn [11]; 0.25 kg/ha): 95%
- pest or weed control at 250 g/ha (Field Bindweed [12]; 0.25 kg/ha): 70%
- plant injury at 250 g/ha (Wheat [13]; 0.25 kg/ha): 80%
- pest or weed control at 250 g/ha (Velvetleaf [14]; 0.25 kg/ha): 100%
- pest or weed control at 250 g/ha (Morningglory [15]; 0.25 kg/ha): 70%
- pest or weed control at 250 g/ha (Green Foxtail [16]; 0.25 kg/ha): 100%
- plant injury at 250 g/ha (Rice [17]; 0.25 kg/ha): 60%
- pest or weed control at 250 g/ha (Johnsongrass [18]; 0.25 kg/ha): 70%
- pest or weed control at 250 g/ha (Field Bindweed [19]; 0.25 kg/ha): 80%
- plant injury at 250 g/ha (Field Corn [20]; 0.25 kg/ha): 40%
- pest or weed control at 250 g/ha (Green Foxtail [21]; 0.25 kg/ha): 60%
- plant injury at 250 g/ha (Soybean [22]; 0.25 kg/ha): 30%
